Results taken from EPA's ToxValDB 9.5.
“And” between values parts separate entries of the source, which are not always exact repeats. Equal values may be shown once. Each block holds one compound with its values, some of them ahead of it.

How the values were obtained:
Rattus norvegicus [1] = settings: M/F
Mus musculus [2] = settings: hepatic; for LOAEL: chronic, duration: 6 months, inhalation, F
Rattus norvegicus [3] = settings: oral; for NOAEL: M/F; for NOEL: M
Rattus norvegicus [4] = settings: oral, gavage; for LD50: acute
Rattus norvegicus [5] = settings: oral
Mus musculus [6] = settings: reproduction developmental; oral; drinking water; F; Nod/Shilt; generation: F1; F1: Endocrine: Blood: Glucose (GLU) + F1: Endocrine: Multiple Organs: Diabetes + F1: Endocrine: Pancreas: Insulitis
Rattus norvegicus [7] = settings: oral, gavage, Crl:CD(SD)
[8] = chronic, duration: 2 years, inhalation, no effects
[9] = subchronic, oral, myocardial degeneration, hepatotoxicity and nephrotoxicity
[10] = short-term, inhalation, degeneration of olfactory epithelium
[11] = subchronic, oral, gavage, hepatic lesions
[12] = reproduction developmental, oral, drinking water, neurodevelopmental effects
[13] = chronic, duration: 2 years, oral, diet, reduced body weight
[14] = developmental, inhalation, reduced pup weight in the f1 and f2 generations
[15] = chronic, duration: 2 years, oral, diet, decreased body weight gain increased plantar ulcer (females)
[16] = reproduction developmental, oral, reduced fertility in the F1/F2b generation + Reduced relative kidney weights in F0, F1, and F2b adults
[17] = developmental, F, generation: F1, F1: Developmental: Whole Body: Pup Weight Relative to Litter (PND 0) + F1: Developmental: Whole Body: Pup Weight Relative to Litter (PND 4)
[18] = developmental, M/F, generation: F1, F1: Developmental: Whole Body: Live Birth Index + F1: Developmental: Whole Body: Live Pups Born + F1: Developmental: Whole Body: No. Live …
[19] = developmental, M, generation: F1, F1: Developmental: Whole Body: Pup Weight Relative to Litter (PND 0) + F1: Developmental: Whole Body: Pup Weight Relative to Litter (PND 4)
[20] = reproduction developmental, duration: 42 days, M, generation: P0, P0: Blood: Albumin/Globulin (A/G) Ratio + P0: Liver: Cholesterol (CHOL), Total, Blood + P0: Liver: Hepatocellular Hypertrophy + P0: Liver: …
[21] = reproduction developmental, duration: 46 days, F, generation: F1, F1: Whole Body: Pup Weight Relative to Litter (PND 0) + F1: Whole Body: Pup Weight Relative to Litter (PND 4)
[22] = reproduction developmental, duration: 46 days, F, generation: P0, P0: Liver: Cholesterol (CHOL), Total, Blood + P0: Liver: Phospholipid
[23] = reproduction developmental, duration: 46 days, M, generation: F1, F1: Whole Body: Pup Weight Relative to Litter (PND 0) + F1: Whole Body: Pup Weight Relative to Litter (PND 4)
[24] = reproduction developmental, F, generation: P0, P0: Developmental: Uterus: Implantation + P0: Developmental: Uterus: Implantation Index + P0: Hepatic: Blood: Albumin/Globulin (A/G) Ratio…
[25] = reproduction developmental, F, generation: P0, P0: General Toxicity: Whole Body: Clinical Observations + P0: General Toxicity: Whole Body: Maternal Body Weight Change + P0: Other Systems…
[26] = reproduction developmental, M, generation: P0, P0: General Toxicity: Whole Body: Body Weight Change + P0: General Toxicity: Whole Body: Clinical Observations + P0: Other Systems: Bone: …
[27] = reproduction developmental, M, generation: P0, P0: Hepatic: Blood: Albumin/Globulin (A/G) Ratio + P0: Hepatic: Liver: Alanine Aminotransferase (ALT) + P0: Hepatic: Liver: Albumin (A) + P0…
[28] = developmental, duration: 46 days, gavage, F, Developmental: Decreased body weight in pups on PNDs 0 and 4 (13-19% in males and 12-16% in females)
[29] = subchronic, duration: 46 days, gavage, M/F, Body Weight: Decreased body weight (~10%) in males during exposure and recovery and in satellite females during dosing (~23% on day 40) and …
[30] = subchronic, oral, renal and hepatotoxicity

SMILES: CC(F)F [1,1-Difluoroethane]
NOAEL (Rattus norvegicus [1]; [8]): 67500 mg/m3

SMILES: CN(C)N [1,1-Dimethylhydrazine]
LOAEL (Mus musculus [2]; C57BL/6): 0.123 mg/m3

SMILES: CC(F)(F)Cl [1-Chloro-1,1-difluoroethane]
NOAEL (Rattus norvegicus [1]; [8]): 82600 mg/m3

SMILES: OCC(Cl)CCl (configuration not stated) [2,3-Dichloro-1-propanol]
LOAEL (Rattus norvegicus [1]; [9]): 35 mg/kg-day
NOAEL (Rattus norvegicus [1]; [9]): 10 mg/kg-day

SMILES: Cc1ccc(Cl)cc1 [4-Chlorotoluene]
NOAEL (Rattus norvegicus [3]; short-term, duration: 29 days, gavage, Wistar, Deaths + Clinical Observation: Rough fur Reduced condition Difficulties in breathing Distended abdomen Salivation + Body Weight Changes: …): 200 mg/kg-day
NOAEL (Rattus norvegicus [3]; subchronic, duration: 90 days, gavage, Sprague-Dawley, Deaths + Clinical Observation: Languid behavior Prostration Sensitivity to touch Tremor Epistaxis Wheezing Dyspnea + Body Weight Changes: …): 200 mg/kg-day
LD50 (Rattus norvegicus [4]; Sprague-Dawley): 2350 mg/kg and 1900 mg/kg

SMILES: CC=O [Acetaldehyde]
LOAEL (Rattus norvegicus [1]; [10]): 728 mg/m3
NOAEL (Rattus norvegicus [1]; [10]): 273 mg/m3
NOAEL (Rattus norvegicus [3]; short-term, duration: 28 days, drinking water, Wistar, Food Consumption: decrease + Water Consumption: decrease + Blood Chemistry: BUN increase, T-Bil decrease, ALT decrease, ALP decrease + …): 125 mg/kg-day

SMILES: BrC(Br)Br [Bromoform]
LOAEL (Rattus norvegicus [1]; [11]): 50 mg/kg-day
NOEL (Rattus norvegicus [1]; [11]): 25 mg/kg-day and 17.9 mg/kg-day
NOAEL (Mus musculus [2]; short-term, duration: 14 days, oral, gavage, M, CD1): 72 mg/kg-day
LOAEL (Rattus norvegicus [5]; chronic, duration: 103 weeks, gavage, M/F, Fischer 344, hepatic): 100 mg/kg-day
NOAEL (Rattus norvegicus [5]; subchronic, duration: 13 weeks, gavage, M/F, Fischer 344, hepatic): 25 mg/kg-day

SMILES: Cc1cc(S(=O)(=O)[O-])c(N=Nc2c([O-])c(C(=O)O)cc3ccccc23)cc1Cl.[Ca+2] [C.I. Pigment Red 48, calcium salt (1:1)]
NOEL (Rattus norvegicus [3]; subchronic, gavage, Sprague-Dawley, Functional Observational Battery: Grip strength of hind limbs + Relative Organ Weight: Kidneys increase + Histopathology: Kidneys/ proximal …): 200 mg/kg-day
LD50 (Rattus norvegicus [4]): ≥ 5000 mg/kg

SMILES: [O-][Cl+][O-] [Chlorite]
LOAEL (Rattus norvegicus [1]; [12]): 6 mg/kg-day
NOAEL (Rattus norvegicus [1]; [12]): 3 mg/kg-day
NOAEL (Rattus norvegicus [5]; developmental, duration: 16 weeks, drinking water, M/F, Sprague-Dawley, developmental): 2.9 mg/kg-day

SMILES: COc1nc(C)nc(NC(=O)NS(=O)(=O)c2ccccc2Cl)n1 [Chlorsulfuron]
LEL (Rattus norvegicus [1]; [13]): 25 mg/kg-day
NOEL (Rattus norvegicus [1]; [13]): 5 mg/kg-day

SMILES: C1CCCCC1 [Cyclohexane]
LOAEL (Rattus norvegicus [1]; [14]): 24100 mg/m3
NOAEL (Rattus norvegicus [1]; [14]): 6890 mg/m3

SMILES: CCOP(=O)(OCC)SCCSCC.CCOP(=S)(OCC)OCCSCC [Demeton]
LEL (Rattus norvegicus [1]; chronic, duration: 2 years, oral, diet, cholinesterase inhibition, optic nerve degeneration): 0.04 mg/kg-day

SMILES: O=C1N(CO)C(O)C(O)N1CO (configuration not stated) [Dimethyloldihydroxyethyleneurea]
NOAEL (Rattus norvegicus [3]; subchronic, duration: 90 days, gavage, Fischer 344, Clinical Observation: Yellow discoloration, abdominal/anogenital region Soft stool Hypoactivity Grasping reflex decrease, Hypothermic …): 3000 mg/kg-day
NOAEL (Rattus norvegicus [4]; developmental, duration: 10 days, Wistar): 640 mg/kg-day
NOAEL (Rattus norvegicus [4]; reproduction developmental, duration: 14 days, Fischer 344): 4000 mg/kg-day

SMILES: CC(C)C(Nc1ccc(C(F)(F)F)cc1Cl)C(=O)OC(C#N)c1cccc(Oc2ccccc2)c1 (configuration not stated) [Fluvalinate]
LEL (Rattus norvegicus [1]; [15]): 2.5 mg/kg-day
NOEL (Rattus norvegicus [1]; [15]): 1 mg/kg-day

LEL (Rattus norvegicus [1]; [16]): 0.05 mg/kg-day
SMILES: COC(=O)C(C)Oc1ccc(Oc2ncc(C(F)(F)F)cc2Cl)cc1 (configuration not stated) [Haloxyfop-methyl]
NOEL (Rattus norvegicus [1]; [16]): 0.005 mg/kg-day

SMILES: NN [Hydrazine]
LOAEL (Mus musculus [2]; ICR): 0.262 mg/m3

SMILES: O=C(O)C(F)(F)C(F)(F)C(F)(F)C(F)(F)C(F)(F)C(F)(F)C(F)(F)C(F)(F)C(F)(F)C(F)(F)F [Perfluoroundecanoic acid]
NOEL (Rattus norvegicus [3]; subchronic, gavage, Sprague-Dawley, Body Weight Changes: Body weight gain decrease + Hematology: Fibrinogen decrease + Blood Chemistry: BUN increase, ALP increase, TP decrease…): 0.1 mg/kg-day
LOAEL (Mus musculus [6]): 0.042 mg/kg-day
NOAEL (Mus musculus [6]): 0.004 mg/kg-day
LOAEL (Rattus norvegicus [7]; [17]): 0.3 mg/kg-day
NOAEL (Rattus norvegicus [7]; [17]): 0.1 mg/kg-day
LOAEL (Rattus norvegicus [7]; [18]): 0.3 mg/kg-day
NOAEL (Rattus norvegicus [7]; [18]): 0.1 mg/kg-day
LOAEL (Rattus norvegicus [7]; [19]): 0.3 mg/kg-day
NOAEL (Rattus norvegicus [7]; [19]): 0.1 mg/kg-day
NEL (Rattus norvegicus [7]; reproduction developmental, duration: 42 days, M, generation: P0, P0: Adrenal: Adrenal Gland Histopathology + P0: Adrenal: Adrenal Gland Weight, Absolute + P0: Adrenal: Adrenal Gland Weight, Relative + P0: …): 1 mg/kg-day
LEL (Rattus norvegicus [7]; reproduction developmental, duration: 42 days, M, generation: P0, P0: Adrenal: Adrenal Gland Weight, Absolute, Recovery + P0: Blood: Activated Partial Thromboplastin Time (APTT) + P0: Blood: Calcium (CA), …): 1 mg/kg-day
NEL (Rattus norvegicus [7]; reproduction developmental, duration: 42 days, M, generation: P0, P0: Blood: Activated Partial Thromboplastin Time (APTT) + P0: Blood: Calcium (CA), Blood + P0: Blood: Fibrinogen + P0: Blood: Mean …): 0.3 mg/kg-day
LEL (Rattus norvegicus [7]; [20]): 0.3 mg/kg-day
NEL (Rattus norvegicus [7]; [20]): 0.1 mg/kg-day
LEL (Rattus norvegicus [7]; reproduction developmental, duration: 42 days, M, generation: P0, P0: Blood: Platelets (PLT)): 0.1 mg/kg-day
LEL (Rattus norvegicus [7]; [21]): 1 mg/kg-day
NEL (Rattus norvegicus [7]; [21]): 0.3 mg/kg-day
NEL (Rattus norvegicus [7]; reproduction developmental, duration: 46 days, F, generation: P0, P0: Adrenal: Adrenal Gland Histopathology + P0: Adrenal: Adrenal Gland Weight, Absolute + P0: Adrenal: Adrenal Gland Weight, Relative + P0: …): 1 mg/kg-day
LEL (Rattus norvegicus [7]; reproduction developmental, duration: 46 days, F, generation: P0, P0: Adrenal: Adrenal Gland Weight, Absolute, Recovery + P0: Blood: Fibrinogen + P0: Blood: Mean Corpuscular Hemoglobin (MCH) + P0: Blood: …): 1 mg/kg-day
NEL (Rattus norvegicus [7]; reproduction developmental, duration: 46 days, F, generation: P0, P0: Blood: Fibrinogen + P0: Blood: Mean Corpuscular Hemoglobin (MCH) + P0: Blood: Mean Corpuscular Volume (MCV) + P0: Kidney: Blood Urea …): 0.3 mg/kg-day
LEL (Rattus norvegicus [7]; reproduction developmental, duration: 46 days, F, generation: P0, P0: Blood: Total Protein (TP), Blood + P0: Thymus: Thymus Histopathology): 0.1 mg/kg-day
LEL (Rattus norvegicus [7]; [22]): 0.3 mg/kg-day
NEL (Rattus norvegicus [7]; [22]): 0.1 mg/kg-day
NEL (Rattus norvegicus [7]; reproduction developmental, duration: 46 days, M/F, generation: F1, F1: Whole Body: Live Birth Index + F1: Whole Body: Live pups (PND 4) + F1: Whole Body: Live Pups Born + F1: Whole Body: Male Pups per Pups …): 1 mg/kg-day
LEL (Rattus norvegicus [7]; [23]): 1 mg/kg-day
NEL (Rattus norvegicus [7]; [23]): 0.3 mg/kg-day
LOAEL (Rattus norvegicus [7]; reproduction developmental, F, generation: P0, P0: Cardiovascular: Heart: Heart Histopathology + P0: Cardiovascular: Heart: Heart Weight, Absolute + P0: Cardiovascular: Heart: Heart …): 0.3 mg/kg-day
LOAEL (Rattus norvegicus [7]; [24]): 0.3 mg/kg-day
NOAEL (Rattus norvegicus [7]; [24]): 0.1 mg/kg-day
LOAEL (Rattus norvegicus [7]; [25]): 1 mg/kg-day
NOAEL (Rattus norvegicus [7]; [25]): 0.3 mg/kg-day
LOAEL (Rattus norvegicus [7]; reproduction developmental, M, generation: P0, P0: Cardiovascular: Heart: Heart Histopathology + P0: Cardiovascular: Heart: Heart Weight, Absolute + P0: Cardiovascular: Heart: Heart …): 0.3 mg/kg-day
LOAEL (Rattus norvegicus [7]; [26]): 1 mg/kg-day
NOAEL (Rattus norvegicus [7]; [26]): 0.3 mg/kg-day
LOAEL (Rattus norvegicus [7]; [27]): 0.3 mg/kg-day
NOAEL (Rattus norvegicus [7]; [27]): 0.1 mg/kg-day
LOAEL (Rattus norvegicus [5]; [28]): 1 mg/kg-day
NOAEL (Rattus norvegicus [5]; [28]): 0.3 mg/kg-day
LOAEL (Rattus norvegicus [5]; [29]): 1 mg/kg-day
NOAEL (Rattus norvegicus [5]; [29]): 0.3 mg/kg-day
NOAEL (Rattus norvegicus [5]; subchronic, duration: 46 days, gavage, M/F, Hepatic: Increased absolute and relative liver weight and centrilobular hypertrophy at 1.0 mg/kg/day): 1 mg/kg-day

SMILES: C#CCO [Propargyl alcohol]
LOAEL (Rattus norvegicus [1]; [30]): 15 mg/kg-day
NOAEL (Rattus norvegicus [1]; [30]): 5 mg/kg-day
